# Experimental data as given in patent US9492471B2, “Methods of treating a disease or disorder associated with Bruton'S Tyrosine Kinase” (Celgene Avilomics Research, Inc., priority 2013, dated 2016).
# Where two headings read alike, the source gives them in different places.
# Assays:
# Assay in all cases: HotSpot kinase profiling
# Format in all cases: biochemical
# EPHA7 = target: T1, EPHA7 (Homo sapiens, UniProt Q15375)
# T1 construct: purchased Reaction Biology Corp
# Outline: (§1)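 Percent inhibition, averaged when run more than once and referenced to a DMSO negative control, came from a radioactive filter-binding readout on P81 paper. Reactions of kinase with freshly made substrate and cofactors ran for 2 h at room temperature.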
# LKB1 = target: T2, LKB1 (Homo sapiens, UniProt Q15831)
# T2 construct: purchased Reaction Biology Corp
# T2 sequence (Q15831 1-433): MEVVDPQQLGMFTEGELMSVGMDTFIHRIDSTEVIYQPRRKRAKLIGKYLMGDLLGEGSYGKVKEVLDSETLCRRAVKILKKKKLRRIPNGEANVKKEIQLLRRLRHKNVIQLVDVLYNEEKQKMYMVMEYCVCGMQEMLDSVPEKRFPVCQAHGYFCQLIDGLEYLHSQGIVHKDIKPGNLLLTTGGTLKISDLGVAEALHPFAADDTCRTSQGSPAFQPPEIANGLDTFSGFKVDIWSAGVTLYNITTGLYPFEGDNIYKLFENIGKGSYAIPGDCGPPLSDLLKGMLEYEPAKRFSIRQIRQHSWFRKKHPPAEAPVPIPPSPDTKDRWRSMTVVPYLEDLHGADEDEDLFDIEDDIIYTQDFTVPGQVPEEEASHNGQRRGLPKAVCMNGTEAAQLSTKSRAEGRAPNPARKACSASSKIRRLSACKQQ
# T2 sequence (Q7RTN6 1-431 partner): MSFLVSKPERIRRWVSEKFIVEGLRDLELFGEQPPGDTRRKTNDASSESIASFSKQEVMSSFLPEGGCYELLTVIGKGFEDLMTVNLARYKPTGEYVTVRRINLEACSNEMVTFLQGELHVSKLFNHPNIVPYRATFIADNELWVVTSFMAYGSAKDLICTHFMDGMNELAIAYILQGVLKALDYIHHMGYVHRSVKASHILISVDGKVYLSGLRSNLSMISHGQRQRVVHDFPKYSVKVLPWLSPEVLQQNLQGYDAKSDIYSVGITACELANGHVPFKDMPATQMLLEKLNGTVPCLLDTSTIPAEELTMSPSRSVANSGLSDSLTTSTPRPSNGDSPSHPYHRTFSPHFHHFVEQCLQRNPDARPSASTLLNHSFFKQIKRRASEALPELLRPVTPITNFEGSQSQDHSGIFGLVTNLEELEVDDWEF
# T2 sequence (Q9Y376 1-341 partner): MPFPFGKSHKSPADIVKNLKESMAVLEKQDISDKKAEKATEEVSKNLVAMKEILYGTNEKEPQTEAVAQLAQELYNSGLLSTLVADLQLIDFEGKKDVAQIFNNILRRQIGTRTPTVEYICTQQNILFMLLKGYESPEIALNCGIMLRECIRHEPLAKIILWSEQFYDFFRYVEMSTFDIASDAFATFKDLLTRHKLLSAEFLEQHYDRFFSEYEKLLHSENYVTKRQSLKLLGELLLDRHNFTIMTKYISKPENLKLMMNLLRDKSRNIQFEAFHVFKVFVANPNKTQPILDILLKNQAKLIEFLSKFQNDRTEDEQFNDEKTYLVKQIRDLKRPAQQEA
# Outline: as §1
# LYN B = target: T3, LYN B (Homo sapiens, UniProt P07948)
# T3 construct: purchased Reaction Biology Corp
# Outline: as §1
# MARK2/PAR-1Ba = target: T4, MARK2/PAR-1Ba (Homo sapiens, UniProt Q7KZI7)
# T4 construct: purchased Reaction Biology Corp
# Outline: as §1
# MEKK1 = target: T5, MEKK1 (Homo sapiens, UniProt Q13233)
# T5 construct: purchased Reaction Biology Corp
# Outline: as §1
# MELK = target: T6, MELK (Homo sapiens, UniProt Q14680)
# T6 construct: purchased Reaction Biology Corp
# Outline: as §1
# NLK = target: T7, NLK (Homo sapiens, UniProt Q9UBE8)
# T7 construct: purchased Reaction Biology Corp
# T7 sequence (Q9UBE8 1-527): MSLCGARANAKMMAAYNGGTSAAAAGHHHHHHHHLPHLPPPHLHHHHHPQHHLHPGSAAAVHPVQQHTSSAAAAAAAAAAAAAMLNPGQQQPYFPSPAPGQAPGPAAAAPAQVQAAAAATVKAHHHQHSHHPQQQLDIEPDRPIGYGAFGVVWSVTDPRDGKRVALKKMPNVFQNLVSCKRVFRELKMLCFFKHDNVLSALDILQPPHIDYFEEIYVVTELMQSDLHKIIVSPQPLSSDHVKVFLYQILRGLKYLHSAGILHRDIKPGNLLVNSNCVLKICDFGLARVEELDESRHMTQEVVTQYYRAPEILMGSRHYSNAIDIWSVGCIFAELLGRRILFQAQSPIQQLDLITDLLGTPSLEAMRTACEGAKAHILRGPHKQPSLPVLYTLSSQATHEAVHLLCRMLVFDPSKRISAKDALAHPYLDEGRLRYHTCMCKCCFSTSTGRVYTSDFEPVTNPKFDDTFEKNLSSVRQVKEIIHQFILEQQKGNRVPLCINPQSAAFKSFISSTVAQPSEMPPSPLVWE
# Outline: as §1
# PKCd = target: T8, PKCd (Homo sapiens, UniProt Q05655)
# T8 construct: purchased Reaction Biology Corp
# Outline: as §1
# SIK1 = target: T9, SIK1 (Homo sapiens, UniProt P57059)
# T9 construct: purchased Reaction Biology Corp
# Outline: as §1
# [1] = read-out: % Enzyme Activity (relative to DMSO controls) Run 1
# [2] = read-out: % Enzyme Activity (relative to DMSO controls) Run 2
# T6 sequence (Q14680 whole entry): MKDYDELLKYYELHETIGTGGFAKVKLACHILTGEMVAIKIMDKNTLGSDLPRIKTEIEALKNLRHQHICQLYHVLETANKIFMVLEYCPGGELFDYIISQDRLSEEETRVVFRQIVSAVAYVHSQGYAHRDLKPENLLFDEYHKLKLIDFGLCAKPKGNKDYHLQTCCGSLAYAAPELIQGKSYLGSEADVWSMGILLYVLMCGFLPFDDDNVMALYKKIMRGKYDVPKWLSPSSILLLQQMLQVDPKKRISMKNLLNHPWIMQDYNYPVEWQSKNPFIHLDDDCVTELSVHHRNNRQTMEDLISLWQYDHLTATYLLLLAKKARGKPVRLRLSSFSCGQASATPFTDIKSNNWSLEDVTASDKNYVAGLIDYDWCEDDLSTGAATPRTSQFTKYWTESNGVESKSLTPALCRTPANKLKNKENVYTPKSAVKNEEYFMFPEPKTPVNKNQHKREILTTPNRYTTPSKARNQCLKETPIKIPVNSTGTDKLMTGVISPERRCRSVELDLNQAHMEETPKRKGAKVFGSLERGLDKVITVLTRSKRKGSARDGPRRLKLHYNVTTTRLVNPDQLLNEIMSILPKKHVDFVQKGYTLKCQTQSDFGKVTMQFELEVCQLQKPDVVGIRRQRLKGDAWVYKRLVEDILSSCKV
# T4 sequence (Q7KZI7 1-725 isoform Q7KZI7-4): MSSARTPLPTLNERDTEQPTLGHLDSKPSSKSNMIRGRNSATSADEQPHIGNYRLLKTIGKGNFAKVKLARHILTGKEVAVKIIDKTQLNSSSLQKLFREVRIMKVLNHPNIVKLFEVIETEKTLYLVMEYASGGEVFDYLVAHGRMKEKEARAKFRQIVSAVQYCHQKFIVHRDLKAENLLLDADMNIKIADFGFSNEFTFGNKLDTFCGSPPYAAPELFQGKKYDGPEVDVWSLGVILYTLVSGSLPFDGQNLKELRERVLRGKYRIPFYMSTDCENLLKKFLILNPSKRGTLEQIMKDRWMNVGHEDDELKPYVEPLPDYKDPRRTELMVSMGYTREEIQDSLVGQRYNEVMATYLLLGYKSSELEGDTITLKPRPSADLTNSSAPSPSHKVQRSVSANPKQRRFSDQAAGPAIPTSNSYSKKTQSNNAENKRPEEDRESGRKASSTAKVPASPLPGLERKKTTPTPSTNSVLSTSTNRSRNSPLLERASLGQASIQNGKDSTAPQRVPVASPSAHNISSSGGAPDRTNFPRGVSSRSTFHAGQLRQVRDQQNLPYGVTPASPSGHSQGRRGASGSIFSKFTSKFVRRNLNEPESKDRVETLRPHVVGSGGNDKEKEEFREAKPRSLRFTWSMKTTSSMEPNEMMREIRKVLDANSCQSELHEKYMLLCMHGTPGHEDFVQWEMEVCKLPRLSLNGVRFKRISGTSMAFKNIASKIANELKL
# T9 sequence (P57059 whole entry): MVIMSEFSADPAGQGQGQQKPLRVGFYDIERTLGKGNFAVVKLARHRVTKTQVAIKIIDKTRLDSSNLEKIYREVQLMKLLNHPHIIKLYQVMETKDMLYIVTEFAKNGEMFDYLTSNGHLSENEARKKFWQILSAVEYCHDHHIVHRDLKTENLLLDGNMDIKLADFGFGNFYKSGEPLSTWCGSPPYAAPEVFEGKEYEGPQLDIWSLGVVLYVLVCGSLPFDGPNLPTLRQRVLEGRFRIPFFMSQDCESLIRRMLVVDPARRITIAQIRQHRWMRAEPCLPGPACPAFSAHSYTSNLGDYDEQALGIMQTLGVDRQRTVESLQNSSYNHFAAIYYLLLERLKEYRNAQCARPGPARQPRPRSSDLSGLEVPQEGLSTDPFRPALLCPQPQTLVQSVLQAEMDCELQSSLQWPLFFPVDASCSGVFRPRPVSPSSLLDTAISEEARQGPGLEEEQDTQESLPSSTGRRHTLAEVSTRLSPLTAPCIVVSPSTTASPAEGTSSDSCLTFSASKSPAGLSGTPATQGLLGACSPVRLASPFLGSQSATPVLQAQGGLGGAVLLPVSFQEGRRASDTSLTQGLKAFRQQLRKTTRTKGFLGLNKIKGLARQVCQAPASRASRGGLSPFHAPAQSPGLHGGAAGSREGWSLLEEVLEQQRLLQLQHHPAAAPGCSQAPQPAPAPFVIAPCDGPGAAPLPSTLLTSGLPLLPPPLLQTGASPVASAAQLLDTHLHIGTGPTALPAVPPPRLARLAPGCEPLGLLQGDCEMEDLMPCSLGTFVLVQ
# T5 sequence (Q13233 whole entry): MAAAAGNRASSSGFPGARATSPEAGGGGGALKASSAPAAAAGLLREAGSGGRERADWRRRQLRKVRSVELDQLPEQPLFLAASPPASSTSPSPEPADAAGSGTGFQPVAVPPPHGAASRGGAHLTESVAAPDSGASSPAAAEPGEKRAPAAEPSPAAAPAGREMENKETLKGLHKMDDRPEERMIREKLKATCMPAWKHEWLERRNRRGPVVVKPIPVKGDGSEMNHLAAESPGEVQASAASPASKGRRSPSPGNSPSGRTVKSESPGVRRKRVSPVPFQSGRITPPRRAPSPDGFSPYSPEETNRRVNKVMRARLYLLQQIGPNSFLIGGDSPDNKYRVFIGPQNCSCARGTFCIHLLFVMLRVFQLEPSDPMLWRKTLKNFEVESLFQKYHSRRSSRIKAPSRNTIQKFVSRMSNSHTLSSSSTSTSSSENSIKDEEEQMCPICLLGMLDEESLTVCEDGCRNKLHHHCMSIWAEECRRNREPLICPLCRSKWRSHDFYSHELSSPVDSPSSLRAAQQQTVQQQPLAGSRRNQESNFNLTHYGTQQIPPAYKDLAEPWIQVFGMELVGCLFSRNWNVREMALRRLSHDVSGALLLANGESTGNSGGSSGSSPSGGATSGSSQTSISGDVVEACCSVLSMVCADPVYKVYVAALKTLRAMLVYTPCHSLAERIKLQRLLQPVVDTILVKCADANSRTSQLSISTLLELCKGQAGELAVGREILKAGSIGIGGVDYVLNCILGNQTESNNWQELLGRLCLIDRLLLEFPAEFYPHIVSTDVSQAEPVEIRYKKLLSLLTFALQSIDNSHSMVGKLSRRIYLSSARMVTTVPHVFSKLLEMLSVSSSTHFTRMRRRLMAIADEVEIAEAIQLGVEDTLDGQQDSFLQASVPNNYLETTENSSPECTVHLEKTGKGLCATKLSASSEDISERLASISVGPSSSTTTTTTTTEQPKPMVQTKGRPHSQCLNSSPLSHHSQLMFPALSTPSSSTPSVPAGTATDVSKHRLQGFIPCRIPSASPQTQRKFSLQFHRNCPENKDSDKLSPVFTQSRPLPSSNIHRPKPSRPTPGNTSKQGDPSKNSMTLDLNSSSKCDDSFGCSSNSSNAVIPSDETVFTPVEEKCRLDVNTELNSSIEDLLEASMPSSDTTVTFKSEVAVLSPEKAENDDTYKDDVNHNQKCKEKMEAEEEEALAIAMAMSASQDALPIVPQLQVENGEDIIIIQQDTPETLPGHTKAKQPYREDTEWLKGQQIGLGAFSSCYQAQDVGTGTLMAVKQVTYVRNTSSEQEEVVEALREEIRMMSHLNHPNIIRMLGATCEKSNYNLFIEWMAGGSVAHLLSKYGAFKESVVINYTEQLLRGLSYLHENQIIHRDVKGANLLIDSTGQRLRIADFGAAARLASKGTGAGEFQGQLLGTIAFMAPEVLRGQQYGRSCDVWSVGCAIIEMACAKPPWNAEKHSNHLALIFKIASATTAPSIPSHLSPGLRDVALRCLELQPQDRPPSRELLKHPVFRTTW
# T3 sequence (P07948 1-491 isoform P07948-2): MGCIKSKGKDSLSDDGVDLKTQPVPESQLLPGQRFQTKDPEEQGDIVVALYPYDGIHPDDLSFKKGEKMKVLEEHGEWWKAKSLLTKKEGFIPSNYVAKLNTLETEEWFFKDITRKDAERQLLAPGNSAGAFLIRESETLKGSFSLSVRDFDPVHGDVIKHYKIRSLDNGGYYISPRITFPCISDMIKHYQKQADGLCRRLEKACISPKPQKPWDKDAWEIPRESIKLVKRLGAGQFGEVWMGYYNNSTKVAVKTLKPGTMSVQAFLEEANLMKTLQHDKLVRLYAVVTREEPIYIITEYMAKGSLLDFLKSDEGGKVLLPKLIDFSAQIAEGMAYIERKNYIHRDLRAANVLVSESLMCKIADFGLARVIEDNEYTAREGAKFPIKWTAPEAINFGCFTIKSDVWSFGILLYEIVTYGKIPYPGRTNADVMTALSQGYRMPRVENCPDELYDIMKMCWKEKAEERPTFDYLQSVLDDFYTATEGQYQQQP
# T8 sequence (Q05655 whole entry): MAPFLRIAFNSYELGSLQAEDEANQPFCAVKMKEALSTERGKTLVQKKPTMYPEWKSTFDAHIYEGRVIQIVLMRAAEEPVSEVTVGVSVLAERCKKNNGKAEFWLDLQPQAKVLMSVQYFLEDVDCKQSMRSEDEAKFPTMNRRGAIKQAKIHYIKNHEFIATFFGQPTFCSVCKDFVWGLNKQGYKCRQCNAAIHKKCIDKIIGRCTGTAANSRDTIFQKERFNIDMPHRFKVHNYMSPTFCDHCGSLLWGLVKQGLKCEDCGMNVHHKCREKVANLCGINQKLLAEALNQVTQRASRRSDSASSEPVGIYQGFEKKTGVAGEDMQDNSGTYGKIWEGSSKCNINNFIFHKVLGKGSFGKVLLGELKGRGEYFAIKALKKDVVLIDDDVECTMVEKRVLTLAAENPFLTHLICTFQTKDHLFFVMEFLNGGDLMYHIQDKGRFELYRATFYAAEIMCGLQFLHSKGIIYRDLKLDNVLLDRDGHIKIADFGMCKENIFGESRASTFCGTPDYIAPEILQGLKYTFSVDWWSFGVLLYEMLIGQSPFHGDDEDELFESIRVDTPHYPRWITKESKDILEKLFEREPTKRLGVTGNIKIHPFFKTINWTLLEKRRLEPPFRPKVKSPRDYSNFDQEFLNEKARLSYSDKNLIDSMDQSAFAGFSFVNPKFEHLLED
smiles,measurement,setting,value
C=CC(=O)Nc1cccc(Nc2nc(Nc3ccc(OCCOC)c(F)c3)ncc2F)c1 [Compound 2],inhibition at 3 µM,EPHA7,37.9%
same,remaining activity at 3 µM,EPHA7; [1],60%
same,remaining activity at 3 µM,EPHA7; [2],64.1%
same,inhibition at 3 µM,LKB1,2.41%
same,remaining activity at 3 µM,LKB1; [1],99.2%
same,remaining activity at 3 µM,LKB1; [2],95.9%
same,inhibition at 3 µM,LYN B,5.7%
same,remaining activity at 3 µM,LYN B; [1],92.9%
same,remaining activity at 3 µM,LYN B; [2],95.7%
same,inhibition at 3 µM,MARK2/PAR-1Ba,1.3%
same,remaining activity at 3 µM,MARK2/PAR-1Ba; [1],99.6%
same,remaining activity at 3 µM,MARK2/PAR-1Ba; [2],97.8%
same,inhibition at 3 µM,MEKK1,-14.7%
same,remaining activity at 3 µM,MEKK1; [1],113%
same,remaining activity at 3 µM,MEKK1; [2],117%
same,inhibition at 3 µM,MELK,-8.07%
same,remaining activity at 3 µM,MELK; [1],109%
same,remaining activity at 3 µM,MELK; [2],107%
same,inhibition at 3 µM,NLK,-1.29%
same,remaining activity at 3 µM,NLK; [1],99.6%
same,remaining activity at 3 µM,NLK; [2],103%
same,inhibition at 3 µM,PKCd,1.78%
same,remaining activity at 3 µM,PKCd; [1],100%
same,remaining activity at 3 µM,PKCd; [2],96%
same,inhibition at 3 µM,SIK1,51.4%
same,remaining activity at 3 µM,SIK1; [1],48.4%
same,remaining activity at 3 µM,SIK1; [2],48.7%
